# Species: Rattus norvegicus
# Test: Open TG-GATES - Regimen: Single
# Type: toxicity, organism-based, Sprague-Dawley
# Design: regimen Single, gender Male, age 6 weeks
# Conditions: in vivo, po, route gavage; for gamma-GTP / A/G / ALP / AST / BUN / CRE / Ca / Cl / DBIL / GLC / K / LDH / Na / PL / RALB / TBIL / TC / TG / ALT / IP / TP: tissue Plasma; for APTT / Bas / Eos / Fbg / Hb / Ht / Lym / MCH / MCHC / MCV / Mono / Neu / PT / Plat / RBC / Ret / WBC: tissue Blood; for KIDNEY_L / KIDNEY_R / KIDNEY_TOTAL: tissue Kidney; for LIVER: tissue Liver
# [1] = 15 mg/kg, 3 h, dose level Middle
# [2] = 15 mg/kg, 6 h, dose level Middle
structure (smiles),measurement,setting,value
COc1ccc2c(c1)c(CC(=O)O)c(C)n2C(=O)c1ccc(Cl)cc1 [INDOMETHACIN],gamma-GTP,"5 mg/kg, 9 h, dose level High",2.6 IU/L
same,A/G,"5 mg/kg, 9 h, dose level Low",1.7
same,ALP,"5 mg/kg, 9 h, dose level Low",793.6 IU/L
same,AST,"5 mg/kg, 9 h, dose level Low",72.6 IU/L
same,BUN,"5 mg/kg, 9 h, dose level Low",9.8 mg/dL
same,CRE,"5 mg/kg, 9 h, dose level Low",0.3 mg/dL
same,Ca,"5 mg/kg, 9 h, dose level Low",10.3 mg/dL
same,Cl,"5 mg/kg, 9 h, dose level Low",104 meq/L
same,DBIL,"5 mg/kg, 9 h, dose level Low",0.076 mg/dL
same,GLC,"5 mg/kg, 9 h, dose level Low",197.6 mg/dL
same,K,"5 mg/kg, 9 h, dose level Low",3.8 meq/L
same,LDH,"5 mg/kg, 9 h, dose level Low",194 IU/L
same,Na,"5 mg/kg, 9 h, dose level Low",141.4 meq/L
same,PL,"5 mg/kg, 9 h, dose level Low",137 mg/dL
same,RALB,"5 mg/kg, 9 h, dose level Low",3.3 g/dL
same,TBIL,"5 mg/kg, 9 h, dose level Low",0.1 mg/dL
same,TC,"5 mg/kg, 9 h, dose level Low",76.2 mg/dL
same,TG,"5 mg/kg, 9 h, dose level Low",31.8 mg/dL
same,gamma-GTP,"5 mg/kg, 9 h, dose level Low",1.2 IU/L
same,TERMINAL_BW,"5 mg/kg, 24 h, dose level High",211.4 g
same,TERMINAL_BW,"5 mg/kg, 24 h, dose level Low",236.2 g
same,APTT,"5 mg/kg, 24 h, dose level High",17.1 s
same,Bas,"5 mg/kg, 24 h, dose level High",0%
same,Eos,"5 mg/kg, 24 h, dose level High",0.8%
same,Fbg,"5 mg/kg, 24 h, dose level High",232.2 mg/dL
same,Hb,"5 mg/kg, 24 h, dose level High",13 g/dL
same,Ht,"5 mg/kg, 24 h, dose level High",39.2%
same,Lym,"5 mg/kg, 24 h, dose level High",78%
same,MCH,"5 mg/kg, 24 h, dose level High",21.9 pg
same,MCHC,"5 mg/kg, 24 h, dose level High",33.2%
same,MCV,"5 mg/kg, 24 h, dose level High",65.9 fL
same,Mono,"5 mg/kg, 24 h, dose level High",8.2%
same,Neu,"5 mg/kg, 24 h, dose level High",13.4%
same,PT,"5 mg/kg, 24 h, dose level High",12.2 s
same,Plat,"5 mg/kg, 24 h, dose level High",100.7 x10_4/uL
same,RBC,"5 mg/kg, 24 h, dose level High",595.4 x10_4/ul
same,Ret,"5 mg/kg, 24 h, dose level High",9.8%
same,WBC,"5 mg/kg, 24 h, dose level High",116.2 x10_2/uL
same,APTT,"5 mg/kg, 24 h, dose level Low",18.6 s
same,Bas,"5 mg/kg, 24 h, dose level Low",0.8%
same,Fbg,"5 mg/kg, 24 h, dose level Low",249.8 mg/dL
same,Hb,"5 mg/kg, 24 h, dose level Low",13.2 g/dL
same,Ht,"5 mg/kg, 24 h, dose level Low",38.2%
same,Lym,"5 mg/kg, 24 h, dose level Low",65.8%
same,MCH,"5 mg/kg, 24 h, dose level Low",21.3 pg
same,MCHC,"5 mg/kg, 24 h, dose level Low",34.5%
same,MCV,"5 mg/kg, 24 h, dose level Low",61.7 fL
same,Mono,"5 mg/kg, 24 h, dose level Low",3.2%
same,Neu,"5 mg/kg, 24 h, dose level Low",29.2%
same,PT,"5 mg/kg, 24 h, dose level Low",11.6 s
same,Plat,"5 mg/kg, 24 h, dose level Low",117.7 x10_4/uL
same,RBC,"5 mg/kg, 24 h, dose level Low",619.8 x10_4/ul
same,Ret,"5 mg/kg, 24 h, dose level Low",7.2%
same,WBC,"5 mg/kg, 24 h, dose level Low",111.3 x10_2/uL
same,KIDNEY_L,"5 mg/kg, 24 h, dose level High",1 g
same,KIDNEY_R,"5 mg/kg, 24 h, dose level High",1 g
same,KIDNEY_TOTAL,"5 mg/kg, 24 h, dose level High",1.9 g
same,KIDNEY_TOTAL,"5 mg/kg, 24 h, dose level Low",2.1 g
same,LIVER,"5 mg/kg, 24 h, dose level High",9.9 g
same,LIVER,"5 mg/kg, 24 h, dose level Low",11.3 g
same,A/G,"5 mg/kg, 24 h, dose level High",2
same,ALP,"5 mg/kg, 24 h, dose level High",879 IU/L
same,ALT,"5 mg/kg, 24 h, dose level High",40.4 IU/L
same,AST,"5 mg/kg, 24 h, dose level High",70.2 IU/L
same,BUN,"5 mg/kg, 24 h, dose level High",15.4 mg/dL
same,CRE,"5 mg/kg, 24 h, dose level High",0.5 mg/dL
same,Ca,"5 mg/kg, 24 h, dose level High",10.4 mg/dL
same,Cl,"5 mg/kg, 24 h, dose level High",106.2 meq/L
same,DBIL,"5 mg/kg, 24 h, dose level High",0.006 mg/dL
same,GLC,"5 mg/kg, 24 h, dose level High",197.2 mg/dL
same,IP,"5 mg/kg, 24 h, dose level High",8.4 mg/dL
same,K,"5 mg/kg, 24 h, dose level High",4.9 meq/L
same,LDH,"5 mg/kg, 24 h, dose level High",146 IU/L
same,Na,"5 mg/kg, 24 h, dose level High",138.8 meq/L
same,PL,"5 mg/kg, 24 h, dose level High",133.4 mg/dL
same,RALB,"5 mg/kg, 24 h, dose level High",3.7 g/dL
same,TBIL,"5 mg/kg, 24 h, dose level High",0.3 mg/dL
same,TC,"5 mg/kg, 24 h, dose level High",77.4 mg/dL
same,TG,"5 mg/kg, 24 h, dose level High",65.2 mg/dL
same,TP,"5 mg/kg, 24 h, dose level High",5.6 g/dL
same,gamma-GTP,"5 mg/kg, 24 h, dose level High",1.4 IU/L
same,A/G,"5 mg/kg, 24 h, dose level Low",1.5
same,ALP,"5 mg/kg, 24 h, dose level Low",830.8 IU/L
same,ALT,"5 mg/kg, 24 h, dose level Low",35.8 IU/L
same,AST,"5 mg/kg, 24 h, dose level Low",70 IU/L
same,BUN,"5 mg/kg, 24 h, dose level Low",13.2 mg/dL
same,CRE,"5 mg/kg, 24 h, dose level Low",0.4 mg/dL
same,Ca,"5 mg/kg, 24 h, dose level Low",10.7 mg/dL
same,Cl,"5 mg/kg, 24 h, dose level Low",103.2 meq/L
same,DBIL,"5 mg/kg, 24 h, dose level Low",0.06 mg/dL
same,GLC,"5 mg/kg, 24 h, dose level Low",189.4 mg/dL
same,IP,"5 mg/kg, 24 h, dose level Low",7.6 mg/dL
same,K,"5 mg/kg, 24 h, dose level Low",3.9 meq/L
same,LDH,"5 mg/kg, 24 h, dose level Low",234.2 IU/L
same,Na,"5 mg/kg, 24 h, dose level Low",141.6 meq/L
same,PL,"5 mg/kg, 24 h, dose level Low",144.6 mg/dL
same,RALB,"5 mg/kg, 24 h, dose level Low",3.3 g/dL
same,TBIL,"5 mg/kg, 24 h, dose level Low",0.1 mg/dL
same,TC,"5 mg/kg, 24 h, dose level Low",73.6 mg/dL
same,TG,"5 mg/kg, 24 h, dose level Low",82.8 mg/dL
same,TERMINAL_BW,[1],223.8 g
same,APTT,[1],19.8 s
same,Bas,[1],0.6%
same,Eos,[1],0.4%
same,Fbg,[1],232.4 mg/dL
same,Hb,[1],13.8 g/dL
same,Ht,[1],37.8%
same,Lym,[1],74.8%
same,MCH,[1],22.8 pg
same,MCHC,[1],36.5%
same,MCV,[1],62.5 fL
same,Mono,[1],3.4%
same,Neu,[1],19.6%
same,PT,[1],11.6 s
same,Plat,[1],132.9 x10_4/uL
same,RBC,[1],605.2 x10_4/ul
same,Ret,[1],8.5%
same,WBC,[1],104.8 x10_2/uL
same,KIDNEY_L,[1],0.9 g
same,KIDNEY_R,[1],0.9 g
same,KIDNEY_TOTAL,[1],1.9 g
same,LIVER,[1],10.3 g
same,A/G,[1],1.5
same,ALP,[1],827 IU/L
same,ALT,[1],36.2 IU/L
same,AST,[1],73.6 IU/L
same,BUN,[1],13 mg/dL
same,CRE,[1],0.4 mg/dL
same,Ca,[1],10.8 mg/dL
same,Cl,[1],102.6 meq/L
same,DBIL,[1],0.072 mg/dL
same,GLC,[1],209.2 mg/dL
same,IP,[1],9.8 mg/dL
same,K,[1],4.1 meq/L
same,LDH,[1],219.2 IU/L
same,Na,[1],141.2 meq/L
same,PL,[1],151.6 mg/dL
same,RALB,[1],3.3 g/dL
same,TBIL,[1],0.1 mg/dL
same,TC,[1],84.8 mg/dL
same,TG,[1],64.8 mg/dL
same,TP,[1],5.5 g/dL
same,gamma-GTP,[1],1 IU/L
same,TERMINAL_BW,[2],220.7 g
same,APTT,[2],19 s
same,Bas,[2],0%
same,Eos,[2],0.6%
same,Fbg,[2],224 mg/dL
